From patent US20260234107A1, “TRYPTAMINES AND METHODS OF TREATING MOOD DISORDERS” (priority 2022, published 2026)
Where two headings read alike, the source gives them in different places.

Tests used:
rat synaptosomes = test: Serotonin (5-HT) release from rat synaptosomes; type: biochemical, Male Sprague-Dawley rats; conditions: for EC50: rat synaptosomes preloaded with [3H]5-HT; for % Release @ Max Dose (10 μM): rat synaptosomes
Protocol: Disclosed compounds were assessed for their ability to release serotonin (5-HT) from […] (Table 9). Potency and efficacy for 5-HT release varied substantially depending on the specific compound. […] However, there was also substantial variability among 4-hydroxy compounds.
Synaptosome 5-HT Release Assay. Synaptosome release assays were conducted according to modifications of previously described procedures (Partilla et al. (2016). Interrogating the Activity of Ligands at Monoamine Transporters in Rat Brain Synaptosomes. In Neurotransmitter Transporters (pp. 41-52). Springer.). Briefly, synaptosomes were prepared from rat brains. Male Sprague-Dawley rats were rendered unconscious with CO2 and their brains were immediately removed. The cerebella were discarded and the whole brains (minus striatum) were placed in ice-cold 0.32 M sucrose (10 mL per brain) and gently homogenized by hand. The homogenate of each brain was centrifuged at 1,000×g at 4° C. for 10 mins and the resulting supernatant was diluted with ice-cold 0.32 M sucrose to a total volume of 10 mL to provide the synaptosome solution. Synaptosomes were then preloaded with 5 nM [^3H]5-HT in the presence of selective uptake inhibitors of DAT (50 nM GBR12935), NET (100 nM nomifensine), and VMAT2 (1 μM reserpine) in Krebs phosphate buffer (KPB). The incubations were allowed to reach equilibrium for 2 h at 25° C. For the release reactions, 425 μL of preloaded synaptosomes were added to test tubes containing 75 μL of test drugs diluted in KPB containing 1 mg/mL BSA. After 10 mins, the release reaction was stopped using a cell harvester by rapid vacuum filtration over GF/B filter paper presoaked in wash buffer (10 mM Tris-HCl, pH 7.4, 150 mM NaCl) and the filters were washed with additional wash buffer. Filters were dried for 1 h at 60° C. and retained radioactivity was quantified using a MicroBeta 2 liquid scintillation counter. The amount of retained radioactivity was inversely proportional to the extent of release.

[1] = Metabolic stability in human liver microsomes (HLM); set-up: microsomal CLint / half-life: dose or concentration left out as unconfirmed; conditions: both, human, pooled human liver microsomes, pH 7.4
5-HT1A = biological target: T1, 5-HT1A (Homo sapiens, UniProt P08908); test: FLIPR Ca2+ flux agonist assay at 5-HT1A; type: cell-based; conditions: for 5-HT1A % Act @ Max Dose: Ca2+ flux, CHO cells
T1 construct: host or cells: CHO cells
T1 sequence (P08908 1-422): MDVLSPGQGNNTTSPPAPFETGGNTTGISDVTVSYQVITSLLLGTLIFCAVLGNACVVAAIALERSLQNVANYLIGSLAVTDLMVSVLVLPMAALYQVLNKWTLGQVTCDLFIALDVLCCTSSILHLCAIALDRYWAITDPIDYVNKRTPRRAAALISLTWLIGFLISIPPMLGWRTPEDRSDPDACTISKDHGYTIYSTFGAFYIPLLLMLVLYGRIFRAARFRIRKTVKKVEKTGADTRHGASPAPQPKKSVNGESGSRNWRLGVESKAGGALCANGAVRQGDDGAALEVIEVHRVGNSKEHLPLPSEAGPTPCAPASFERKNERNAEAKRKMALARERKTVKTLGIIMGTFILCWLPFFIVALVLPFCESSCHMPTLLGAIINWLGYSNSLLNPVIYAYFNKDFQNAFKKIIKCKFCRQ
Protocol: (§1) A solution of 250 mM probenecid in 1 mL FLIPR assay buffer was prepared fresh. This was combined with a fluorescent dye (Fluo-4 Direct™) to make a final assay concentration of 2.5 mM. […] The fluorescent dye was then added to the assay plate along with assay buffer to a final volume of 40 μL. The cell plate was incubated for 50 min at 37° C. and 5% CO2 and placed into the FLIPR Tetra along with the compound plate. 10 μL of references and compounds were then transferred from the compound plate into the cell plate and the fluorescent signal was read.

[2] = system: monoamine oxidase A and B (MAO-A and MAO-B); test: Stability in the presence of monoamine oxidases (human liver mitochondria preparation); set-up: half-life / microsomal CLint: dose or concentration left out as unconfirmed; conditions: for stability in the presence of MAO (in words): human liver mitochondria preparation; for Remaining (t = 60 min) / half-life / microsomal CLint: human liver mitochondria; for half-life / microsomal CLint: human, pH 7.4
Protocol: Liver Mitochondria Incubations. Human liver mitochondria (Xenotech H0610.M) were used.

[3] = Stability in mouse brain homogenate; type: in vitro ADME, male CD-1 mice; conditions: mouse brain homogenate, 1 μM, 37° C.; for half-life at 1 µM: male, CD-1
Protocol: Disclosed compounds were tested for stability in mouse brain homogenate (Table 7). There was widely variable stability among the test compounds under the conditions of the experiment.
(§2) Mouse Brain Homogenate Stability. Frozen mouse brain homogenate (pooled from male CD-1 mice, BioreclamationIVT, MSE00BRAINMZA) was thawed in a water bath at 37° C. immediately prior to use. Positive controls and test compounds (final concentration in incubation medium=1 μM for test compounds and 2 μM for controls, all with 2% DMSO) were incubated in duplicate for each time point (0, 10, 30, 60, and 120 min) in the mouse brain homogenate at a total reaction volume of 100 μL at 37° C. At the end of each incubation period, reactions were immediately quenched with 400 μL of acetonitrile containing internal standard (200 ng/mL tolbutamine and 200 ng/mL labetalol) and mixed thoroughly. Plates were then sealed, shaken for 20 min, and centrifuged at 4,000 rpm and 4° C. for 20 min. Aliquots of 50 μL of each supernatant were diluted into 100 μL of water and the mixtures were then shaken again for 10 min.

[4] = Stability in rat brain homogenate; type: in vitro ADME, male Sprague Dawley rats; conditions: rat brain homogenate, 1 μM, 37° C.; for half-life at 1 µM: male, Sprague Dawley
Protocol: Disclosed compounds were tested for stability in rat brain homogenate (Table 8). There was widely variable stability among the test compounds under the conditions of the experiment.
as §2, with “Rat” for “Mouse”, “rat” for “mouse”, “Sprague Dawley rats,” for “CD-1 mice,”, “RAT00BRAINMZA)” for “MSE00BRAINMZA)”

5-HT2B = biological target: T2, 5-HT2B (Homo sapiens, UniProt P41595); test: FLIPR Ca2+ flux agonist assay at 5-HT2B; type: cell-based; conditions: for 5-HT2B % Act @ Max Dose: Ca2+ flux, HEK293, max dose
T2 construct: host or cells: HEK293
Protocol: as §1

5-HT2A = 5-HT2A (Homo sapiens, UniProt P28223); test: FLIPR Ca2+ flux agonist assay at 5-HT2A; type: cell-based; set-up: host or cells: HEK293; conditions: for 5-HT2A % Act @ Max Dose: HEK293, max dose
Protocol: as §1

[5] = human liver mitochondria 0.30 mg protein/mL, 37° C.

5-HT2A, sequence (P28223 whole entry): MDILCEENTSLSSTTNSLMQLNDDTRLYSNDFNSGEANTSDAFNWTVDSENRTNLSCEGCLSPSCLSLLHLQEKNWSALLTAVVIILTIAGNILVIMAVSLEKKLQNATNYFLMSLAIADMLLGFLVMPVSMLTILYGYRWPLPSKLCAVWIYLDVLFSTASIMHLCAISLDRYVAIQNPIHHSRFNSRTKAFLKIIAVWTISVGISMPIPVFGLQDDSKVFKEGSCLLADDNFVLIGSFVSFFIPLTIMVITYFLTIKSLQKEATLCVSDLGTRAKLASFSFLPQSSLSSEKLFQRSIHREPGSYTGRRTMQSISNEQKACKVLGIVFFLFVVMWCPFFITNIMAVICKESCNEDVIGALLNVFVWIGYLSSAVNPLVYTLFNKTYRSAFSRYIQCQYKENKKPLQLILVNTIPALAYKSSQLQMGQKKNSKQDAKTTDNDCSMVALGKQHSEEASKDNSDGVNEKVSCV
T2 sequence (P41595 whole entry, species assumed): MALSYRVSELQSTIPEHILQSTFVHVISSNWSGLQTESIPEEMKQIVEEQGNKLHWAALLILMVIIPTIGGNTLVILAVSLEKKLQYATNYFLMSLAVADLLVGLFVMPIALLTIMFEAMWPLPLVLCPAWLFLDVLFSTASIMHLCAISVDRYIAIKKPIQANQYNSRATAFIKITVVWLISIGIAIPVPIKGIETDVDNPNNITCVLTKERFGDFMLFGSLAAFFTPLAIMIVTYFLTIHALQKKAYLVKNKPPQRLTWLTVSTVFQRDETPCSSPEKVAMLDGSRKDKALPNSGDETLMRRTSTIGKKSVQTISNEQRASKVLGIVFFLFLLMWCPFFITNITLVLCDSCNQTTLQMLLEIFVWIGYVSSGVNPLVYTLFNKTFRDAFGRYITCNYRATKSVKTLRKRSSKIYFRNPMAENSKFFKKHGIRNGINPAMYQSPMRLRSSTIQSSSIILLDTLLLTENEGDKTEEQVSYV

SMILES | EC50 (rat synaptosomes) [nM] | % Release @ Max Dose (10 μM) (rat synaptosomes) [%] | half-life [1] [min] | microsomal CLint [1] [µL/min/mg] | EC50 (5-HT1A) [nM] | 5-HT1A % Act @ Max Dose (5-HT1A) [%] | stability in the presence of MAO (in words) [2] | Remaining (t = 60 min) [2] [%] | half-life [2] [min] | microsomal CLint [2] [µL/min/mg] | half-life at 1 µM [3] [min] | % Compound Remaining (after 120 min) [3] [%] | half-life at 1 µM [4] [min] | % Compound Remaining (after 120 min) [4] [%] | EC50 (5-HT2B) [nM] | 5-HT2B % Act @ Max Dose (5-HT2B) [%] | EC50 (5-HT2A) [nM] | 5-HT2A % Act @ Max Dose (5-HT2A; Ca2+ flux) [%] | other results
CCCNCCc1c[nH]c2cccc(O)c12 [Compound 3, 3-(2-(propylamino)ethyl)-1H-indol-4-ol] | > 10000 | 36.06 | 120 | 11.6 | 33100 | 10.7 | highly stable | 97.3 | > 145 | < 15.9 | 72.6 | 29.2 | 137 | 52.5 | – | – | – | – | –
CC(C)NCCc1c[nH]c2cccc(O)c12 [Compound 6, 3-(2-(isopropylamino)ethyl)-1H-indol-4-ol] | > 10000 | 32.8 | > 145 | < 9.6 | > 100000 | 10.15 | – | 80.5 | > 145 | < 15.9 | 163 | 62.6 | 136 | 53.8 | – | – | – | – | –
CNCCc1c[nH]c2cc(F)cc(O)c12 [Compound 33, 6-fluoro-3-(2-(methylamino)ethyl)-1H-indol-4-ol] | – | – | 10.1 | 138 | > 100000 | 3.51 | – | 14.3 | 20.2 | 114 | 16 | 0.6 | 9.1 | 0.4 | 28.5 | 31.76 | – | – | EC50 (5-HT2A; Ca2+ flux, HEK293, read-out: 5-HT2A EC50): 5.8 nM
CNCCc1c[nH]c2c(F)ccc(O)c12 [Compound 34, 7-fluoro-3-(2-(methylamino)ethyl)-1H-indol-4-ol] | – | – | 6.6 | 209 | > 100000 | 36.72 | – | 6.4 | 15 | 154 | 21.7 | 1.6 | 3.6 | 0 | > 10000 | 8.09 | 16.2 | 77.43 | –
CCCNCCc1c[nH]c2ccc(F)c(O)c12 [Compound 36, 5-fluoro-3-(2-(propylamino)ethyl)-1H-indol-4-ol] | – | – | 49.9 | 27.8 | > 100000 | 15.31 | – | 0.9 | 8.5 | 272 | 108 | 46.2 | 31 | 7.1 | 26.2 | 44.90 | 12.1 | 71.78 | –
CCNCCc1c[nH]c2ccc(C)c(O)c12 [Compound 37, 3-(2-(ethylamino)ethyl)-5-methyl-1H-indol-4-ol] | – | – | 86.8 | 16 | 6950 | 64.6 | – | 65.1 | 88.7 | 26.1 | 69.9 | 31.3 | 14.1 | 0.2 | 274 | 16.28 | 56.5 | 91.0 | –
CCNCCc1c[nH]c2ccc(Cl)c(O)c12 [Compound 38, 5-chloro-3-(2-(ethylamino)ethyl)-1H-indol-4-ol] | – | – | 13.2 | 105 | 1840 | 77.96 | intermediate stability | 22.6 | 26.1 | 88.6 | 17.5 | 0.9 | 9.2 | 0 | 42.4 | 43.30 | 10.5 | 103.70 | –
CNCCc1c[nH]c2cc(C)cc(O)c12 [Compound 39, 6-methyl-3-(2-(methylamino)ethyl)-1H-indol-4-ol] | – | – | 9.9 | 140 | > 100000 | 4.4 | – | 13.5 | 17.8 | 130 | 15.5 | 0.4 | 6.3 | 0.1 | > 10000 | 10.04 | 78.4 | 76.43 | –
CN(C)CCc1c[nH]c2ccccc12 [DMT, N,N-dimethyltryptamine, reference compound] | 80.8 | 80.77 | – | – | – | – | rapidly metabolized by MAO | 8.9 | – | – | – | 0.0 | – | 0.0 | – | – | – | – | CLint(MAO) [2, 5]: 134.9 µL/min/mg; t1/2 [2, 5]: 17.1 min; t1/2 [3]: 6.4 min; t1/2 [4]: 5.1 min
